Assays:
[1] = test system: Human umbilical vein endothelial cells (HUVEC); assay: Endothelial sprouting assay; assay type: cell-based; conditions: HUVEC-coated beads in fibrin gels, 3 days, 0.625 μg/ml to 5 μg/ml, FIG. 1, averages from seven independent experiments
Procedure: Human umbilical vein endothelial cells (HUVEC) from normal umbilical cords were obtained by collagenase treatment. Cultures were propagated in MCDB medium supplemented with 15% FCS, heparin, and endothelial cell growth supplement. Endothelial sprouting was assessed by a modification of the method of Nehls and Drenckhahn ^14. Briefly, microcarrier beads coated with gelatin (Cytodex 3, Sigma) were seeded with HUVEC. When the cells reached confluence on the beads, equal numbers of […] beads were embedded in fibrin gels in 96-well plates. For preparation of fibrin gels, bovine fibrinogen was dissolved in MCDB at a concentration of 2.5 mg/ml. Aprotinin was added at a concentration of 0.05 mg/ml and the solution filtered through a 0.22 micron filter. Fibrinogen solution was supplemented with FGF-2 or sokotrasterol sulphate. As a control, fibrinogen solution without angiogenic factor was used. Following transfer of the fibrinogen solution to 96-well plates, HUVEC-coated beads were added at a density of 50 beads/well, and clotting was induced by the addition of thrombin (1.2 U/ml). […] After 3 days of incubation with daily medium changes, the number of capillary-like tubes formed was quantitated by counting the number of tube-like structures per microcarrier bead (sprouts/bead). Only sprouts greater than 150 μm in length and composed of at least 3 endothelial cells were counted. […]

[2] = test system: chick chorioallantoic membrane (CAM); assay: Chick chorioallantoic membrane (CAM) assay; assay type: in vivo, Gallus gallus domesticus; conditions: 20, 40 and 60 μg/ml, 20 μl on gelatin sponge, day 8 to day 10
Procedure: Fertilized White Leghorn chicken eggs (Gallus gallus domesticus) were incubated at 37° C. under conditions of constant humidity. All chick eggs were handled according to institutional animal care procedures. On embryonic day 6, the developing chick chorioallantoic membrane (CAM) was separated from the shell by opening a small circular window at the broad end of the egg above the air sac. The embryos were checked for normal development, the window sealed with Parafilm, and the eggs returned to the incubator for 2 more days. On day 8, CAMs were treated with FGF-2 (30 ng/ml), sokotrasterol sulphate (20, 40 and 60 μg/ml) or PBS by loading 20 μl onto 2-mm^3 gelatin sponges (Gelfoam; Pharmacia Upjohn), which were then placed on the surface of the developing CAM. Eggs were resealed and returned to the incubator. On day 10, images of the CAMs were captured digitally using an Olympus SZX9 stereomicroscope (Olympus America) equipped with a Spot RT digital imaging system (Diagnostic Instruments). Neovascularization was quantitated for each CAM by counting the number of vessels that entered the sponge area, and dividing by the perimeter of the sponge (vessels/mm). Northern Eclipse version 6.0 (Empix Imaging Inc.) was used for manual vessel counting and mesh perimeter measurements.

[3] = listed as Sokotrasterol sulphate

Substance: sokotrasterol sulphate
- endothelial sprouting (number of tube-like structures per microcarrier bead, sprouts/bead) [1]: promoted endothelial sprouting in vitro in a concentration-dependent manner
- endothelial sprouting (number of tube-like structures per microcarrier bead, sprouts/bead) [1, 3]: promotes endothelial sprouting in vitro
- neovascularization: number of vessels entering the gelatin sponge per mm of perimeter (vessels/mm) [2]: positive concentration-dependent effect
- neovascularization: number of vessels entering the gelatin sponge per mm of perimeter (vessels/mm) [2, 3]: promotes angiogenesis

Reference: patent US20060014727A1, “Angiogenic compounds and uses thereof” (priority 2002, published 2006)
